According to patent publication US12459952B2, “TREM2 modulators” (Muna Therapeutics ApS, priority 2024, dated 2025):

Target: T1, Human TREM2 (Homo sapiens, UniProt Q9NZC2)
T1 construct: expressed in transfected cells
Experiment: Human TREM2 cellular phospho-Syk AlphaLISA assay in HEK293/DAP12+TREM2 stable cell line
Type: cell-based
Conditions: HEK293/DAP12+TREM2 cells; for Emax: maximal response relative to the maximal response of the reference agonist, phospho-Syk AlphaLISA; for EC50: phospho-Syk (Tyr525/526) AlphaLISA signal, 30 min incubation

T1 sequence (Q9NZC2 19-230): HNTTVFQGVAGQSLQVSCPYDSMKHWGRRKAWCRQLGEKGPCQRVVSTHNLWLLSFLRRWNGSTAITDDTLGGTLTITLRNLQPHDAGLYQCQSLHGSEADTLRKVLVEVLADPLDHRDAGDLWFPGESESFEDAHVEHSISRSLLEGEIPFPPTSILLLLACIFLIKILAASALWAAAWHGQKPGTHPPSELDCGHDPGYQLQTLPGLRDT
T1 sequence (O43914 22-113 partner): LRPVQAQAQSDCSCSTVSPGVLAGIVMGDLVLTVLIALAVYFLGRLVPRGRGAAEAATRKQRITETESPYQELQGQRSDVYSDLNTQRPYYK

Emax	EC50	SMILES
75 to 110%	100 to 1000 nM	Cn1c(C(F)(F)F)nc2c(-c3ccc(C#N)nc3)nc(N3CC(Oc4cnn(C5CC5)c4)C3)nc2c1=O [Example 38, 5-(2-(3-((1-cyclopropyl-1H-pyrazol-4-yl)oxy)azetidin-1-yl)-7-methyl-8-oxo-6-(trifluoromethyl)-7,8-dihydropyrimido[5,4-d]pyrimidin-4-yl)picolinonitrile]
75 to 110%	100 to 1000 nM	Cn1cc(-c2nc(N3CC(Oc4cnn(C5CC5)c4)C3)nc3c(=O)n(C)c(C(F)(F)F)nc23)ccc1=O [Example 39, 6-(3-((1-cyclopropyl-1H-pyrazol-4-yl)oxy)azetidin-1-yl)-3-methyl-8-(1-methyl-6-oxo-1,6-dihydropyridin-3-yl)-2-(trifluoromethyl)pyrimido[5,4-d]pyrimidin-4(3H)-one]
< 75%	100 to 1000 nM	Cn1c(C(F)(F)F)nc2c(-c3ccc(F)cc3F)nc(N3CC(Oc4cnn(C5CC5)c4)C3)cc2c1=O [Example 40, 6-(3-((1-cyclopropyl-1H-pyrazol-4-yl)oxy)azetidin-1-yl)-8-(2,4-difluorophenyl)-3-methyl-2-(trifluoromethyl)pyrido[3,4-d]pyrimidin-4(3H)-one]
75 to 110%	100 to 1000 nM	Cn1c(C(F)(F)F)nc2c(-c3ccc(C#N)cc3F)nc(N3CC(Oc4cnn(C5CC5)c4)C3)cc2c1=O [Example 41, 4-(6-(3-((1-cyclopropyl-1H-pyrazol-4-yl)oxy)azetidin-1-yl)-3-methyl-4-oxo-2-(trifluoromethyl)-3,4-dihydropyrido[3,4-d]pyrimidin-8-yl)-3-fluorobenzonitrile]
